Data reported in patent US20040176349A1, “Antibacterial composition” (priority 2001, published 2004).
Where two headings read alike, the source gives them in different places.

Experiments:
E. faecalis 24592 = experiment: MIC, microbroth dilution (NCCLS), Table 1; type: cell-based; settings: Enterococcus faecalis, 24592
Description: (§1) The minimum inhibitory concentration (MIC) of the compounds was determined using the microbroth dilution technique in accordance with NCCLS guidelines, employing Mueller-Hinton broth (National Committee for Clinical Laboratory Standards, NCCLS, 1995 “Methods for dilution antimicrobial susceptibility tests for bacteria that grow aerobically”—approved standard M7-A5).
(§2) The compounds were tested in isolation, at different concentrations.

E. faecalis NCTC 5957 = experiment: MIC, microbroth dilution (NCCLS), Table 1; type: cell-based; settings: Enterococcus faecalis, NCTC5957
Description: as §1, §2

E. faecalis Phillips = experiment: MIC, microbroth dilution (NCCLS), Table 1; type: cell-based; settings: Enterococcus faecalis
Description: as §1, §2

E. faecalis SFZ = experiment: MIC, microbroth dilution (NCCLS), Table 1; type: cell-based; settings: Enterococcus faecalis
Description: as §1, §2

E. faecium NCTC 7171 = experiment: MIC, microbroth dilution (NCCLS), Table 1; type: cell-based; settings: Enterococcus faecium, NCTC7171
Description: as §1, §2

E. hirae ATCC 10541 = experiment: MIC, microbroth dilution (NCCLS), Table 1; type: cell-based; settings: Enterococcus hirae, ATCC10541
Description: as §1, §2

VRE 1662 = experiment: MIC, microbroth dilution (NCCLS), Table 1; type: cell-based, Enterococcus; settings: Enterococcus, VRE
Description: as §1, §2

VRE 300 1562 = experiment: MIC, microbroth dilution (NCCLS), Table 1; type: cell-based, Enterococcus; settings: Enterococcus, VRE
Description: as §1, §2

VRE 300 1590 = experiment: MIC, microbroth dilution (NCCLS), Table 1; type: cell-based, Enterococcus; settings: Enterococcus, VRE
Description: as §1, §2

VRE 300 2043 = experiment: MIC, microbroth dilution (NCCLS), Table 1; type: cell-based, Enterococcus; settings: Enterococcus, VRE
Description: as §1, §2

E. faecalis 5659 (vanA) = experiment: Checkerboard microdilution MIC with PFOB, Table 2; type: cell-based; settings: E. faecalis 5659 (vanA)
Summary of the method: (§3)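 Checkerboard microdilution pairing PFOB with other antibiotics. Synergy scored by FIC index: combination FIC <0.5 synergy, 0.5-2.0 indifference, >2 antagonism, with synergy requiring at least a 4-fold reduction for each compound.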

E. faecalis ATCC 29212 = experiment: Checkerboard microdilution MIC with PFOB, Table 2; type: cell-based
Summary of the method: as §3

E.faecalis 78097 (van B) = experiment: Checkerboard microdilution MIC with PFOB, Table 2; type: cell-based
Summary of the method: as §3

E. faecalis ATCC 10541 = experiment: Checkerboard microdilution MIC with PFOB, Table 2; type: cell-based; settings: for MIC: Enterococcus faecalis, ATCC10541
From the text: The aim of the study was to detect any synergy between PFOB and the other antibiotics. For the purposes of the study, synergy was defined in accordance with the FIC (fractional inhibitory concentration) index, as disclosed by Lorian (1991, In “Antibiotics in Laboratory Medicine” 3rd edition, Eds. Williams & Wilkins; esp. p 434-443).

[1] = tested on: E. faecalis SFZ (vancomycin-sensitive isolate, VSE); experiment: Time-kill experiment (viable count); type: cell-based; settings: FIG. 2, ceftazidime alone at 128 mg/L, PFOB alone at 64 mg/L
From the text: FIG. 2 is a graph of Log viable count (cfu per ml) against time (in hours) for the VSE isolate in the presence or absence of the drugs. […] The isolates used in the Example are purely illustrative and not especially unusual.

Enterococcus strains = experiment: MIC against Enterococcus strains, summary of Example 1; type: cell-based; settings: for MIC: Enterococcus, vancomycin-susceptible strains and one vancomycin-resistant strain
Description: as §1, §2

## CC(C)(O/N=C(\C(=O)N[C@@H]1C(=O)N2C(C(=O)[O-])=C(C[n+]3ccccc3)CS[C@H]12)c1csc(N)n1)C(=O)O [CAZ, ceftazidime]
E. faecalis 24592
  MIC: > 128 µg/mL
E. faecalis NCTC 5957
  MIC: > 128 µg/mL
E. faecalis Phillips
  MIC: > 128 µg/mL
E. faecalis SFZ
  MIC: > 128 µg/mL
E. faecium NCTC 7171
  MIC: > 128 µg/mL
E. hirae ATCC 10541
  MIC: > 128 µg/mL
VRE 1662
  MIC: > 128 µg/mL
VRE 300 1562
  MIC: > 128 µg/mL
VRE 300 1590
  MIC: > 128 µg/mL
VRE 300 2043
  MIC: > 128 µg/mL
E. faecalis 5659 (vanA); PFOB 0.5 mg/L
  MIC of partner antibiotic in the presence of PFOB at 0.5 mg/L: >64 µg/mL
E. faecalis 5659 (vanA); PFOB 1 mg/L
  MIC of partner antibiotic in the presence of PFOB at 1 mg/L: >64 µg/mL
E. faecalis 5659 (vanA); PFOB 2 mg/L
  MIC of partner antibiotic in the presence of PFOB at 2 mg/L: >64 µg/mL
E. faecalis 5659 (vanA); PFOB 4 mg/L
  MIC of partner antibiotic in the presence of PFOB at 4 mg/L: >64 µg/mL
E. faecalis 5659 (vanA); PFOB 8 mg/L
  MIC of partner antibiotic in the presence of PFOB at 8 mg/L: >64 µg/mL
E. faecalis 5659 (vanA); PFOB 16 mg/L
  MIC of partner antibiotic in the presence of PFOB at 16 mg/L: >64 µg/mL
E. faecalis 5659 (vanA); PFOB 32 mg/L
  MIC of partner antibiotic in the presence of PFOB at 32 mg/L: 0.25 µg/mL
E. faecalis 5659 (vanA); Enterococcus faecalis, partner antibiotic alone, read-out: MIC (alone) of Partner
  MIC: > 64 µg/mL
E. faecalis ATCC 29212; E. faecalis ATCC 29212, FIC index of PFOB + labelled partner, <0.5 = synergy
  Synergy FIC: 0.188
E. faecalis ATCC 29212; E. faecalis ATCC 29212, PFOB 0.5 mg/L
  MIC of partner antibiotic in the presence of PFOB at 0.5 mg/L: >64 µg/mL
E. faecalis ATCC 29212; E. faecalis ATCC 29212, PFOB 1 mg/L
  MIC of partner antibiotic in the presence of PFOB at 1 mg/L: >64 µg/mL
E. faecalis ATCC 29212; E. faecalis ATCC 29212, PFOB 2 mg/L
  MIC of partner antibiotic in the presence of PFOB at 2 mg/L: >64 µg/mL
E. faecalis ATCC 29212; E. faecalis ATCC 29212, PFOB 4 mg/L
  MIC of partner antibiotic in the presence of PFOB at 4 mg/L: 32 µg/mL
E. faecalis ATCC 29212; E. faecalis ATCC 29212, PFOB 8 mg/L
  MIC of partner antibiotic in the presence of PFOB at 8 mg/L: 16 µg/mL
E. faecalis ATCC 29212; E. faecalis ATCC 29212, PFOB 16 mg/L
  MIC of partner antibiotic in the presence of PFOB at 16 mg/L: 8 µg/mL
E. faecalis ATCC 29212; E. faecalis ATCC 29212, PFOB 32 mg/L
  MIC of partner antibiotic in the presence of PFOB at 32 mg/L: 2 µg/mL
E. faecalis ATCC 29212; Enterococcus faecalis, ATCC29212, E. faecalis ATCC 29212, partner antibiotic alone, read-out: MIC (alone) of Partner
  MIC: > 64 µg/mL
E. faecalis ATCC 29212; checkerboard, E. faecalis ATCC 29212, vancomycin-susceptible, in words
  synergy with PFOB: marked synergy
E.faecalis 78097 (van B); E.faecalis 78097 (van B), FIC index of PFOB + labelled partner, <0.5 = synergy
  Synergy FIC: 0.156
E.faecalis 78097 (van B); E.faecalis 78097 (van B), PFOB 0.5 mg/L
  MIC of partner antibiotic in the presence of PFOB at 0.5 mg/L: >64 µg/mL
E.faecalis 78097 (van B); E.faecalis 78097 (van B), PFOB 1 mg/L
  MIC of partner antibiotic in the presence of PFOB at 1 mg/L: >64 µg/mL
E.faecalis 78097 (van B); E.faecalis 78097 (van B), PFOB 2 mg/L
  MIC of partner antibiotic in the presence of PFOB at 2 mg/L: 32 µg/mL
E.faecalis 78097 (van B); E.faecalis 78097 (van B), PFOB 4 mg/L
  MIC of partner antibiotic in the presence of PFOB at 4 mg/L: 16 µg/mL
E.faecalis 78097 (van B); E.faecalis 78097 (van B), PFOB 8 mg/L
  MIC of partner antibiotic in the presence of PFOB at 8 mg/L: 16 µg/mL
E.faecalis 78097 (van B); E.faecalis 78097 (van B), PFOB 16 mg/L
  MIC of partner antibiotic in the presence of PFOB at 16 mg/L: 8 µg/mL
E.faecalis 78097 (van B); E.faecalis 78097 (van B), PFOB 32 mg/L
  MIC of partner antibiotic in the presence of PFOB at 32 mg/L: 4 µg/mL
E.faecalis 78097 (van B); E.faecalis 78097 (van B), optimum synergistic combination with PFOB, second figure (partner)
  MIC of PFOB & Partner: Partner concentration: 16 µg/mL
E.faecalis 78097 (van B); Enterococcus faecalis, E.faecalis 78097 (van B), partner antibiotic alone, read-out: MIC (alone) of Partner
  MIC: > 64 µg/mL
E.faecalis 78097 (van B); checkerboard, E. faecalis 78097, vanB-mediated vancomycin resistance, in words
  synergy with PFOB: Synergy was also observed
E. faecalis ATCC 10541; E. faecalis ATCC 10541, PFOB 0.5 mg/L
  MIC of partner antibiotic in the presence of PFOB at 0.5 mg/L: >64 µg/mL
E. faecalis ATCC 10541; E. faecalis ATCC 10541, PFOB 1 mg/L
  MIC of partner antibiotic in the presence of PFOB at 1 mg/L: >64 µg/mL
E. faecalis ATCC 10541; E. faecalis ATCC 10541, PFOB 2 mg/L
  MIC of partner antibiotic in the presence of PFOB at 2 mg/L: >64 µg/mL
E. faecalis ATCC 10541; E. faecalis ATCC 10541, PFOB 4 mg/L
  MIC of partner antibiotic in the presence of PFOB at 4 mg/L: >64 µg/mL
E. faecalis ATCC 10541; E. faecalis ATCC 10541, PFOB 8 mg/L
  MIC of partner antibiotic in the presence of PFOB at 8 mg/L: 8 µg/mL
E. faecalis ATCC 10541; E. faecalis ATCC 10541, PFOB 16 mg/L
  MIC of partner antibiotic in the presence of PFOB at 16 mg/L: 4 µg/mL
E. faecalis ATCC 10541; E. faecalis ATCC 10541, PFOB 32 mg/L
  MIC of partner antibiotic in the presence of PFOB at 32 mg/L: <0.06 µg/mL
E. faecalis ATCC 10541; E. faecalis ATCC 10541, optimum synergistic combination of PFOB with the labelled partner, first figure (PFOB), read-out: MIC of PFOB & Partner: PFOB concentration
  MIC: 8 µg/mL
E. faecalis ATCC 10541; E. faecalis ATCC 10541, optimum synergistic combination with PFOB, second figure (partner), read-out: MIC of PFOB & Partner: Partner concentration
  MIC: 8 µg/mL
E. faecalis ATCC 10541; E. faecalis ATCC 10541, partner antibiotic alone, read-out: MIC (alone) of Partner
  MIC: > 64 µg/mL
E. faecalis ATCC 10541; checkerboard, E. faecium ATCC 10541 (as named), vancomycin-susceptible, in words
  synergy with PFOB: marked synergy
[1]
  effect on growth (viable count, time-kill): some inhibitory effect on growth
Enterococcus strains; read-out: MIC of CAZ used in conjunction with PFOB, PFOB at 4 mg/L
  MIC: < 0.06 µg/mL
Enterococcus strains; read-out: MIC of CAZ used in isolation
  MIC: > 128 µg/mL
Enterococcus strains; PFOB at 4 mg/L versus CAZ in isolation
  reduction in the MIC of CAZ by PFOB: about 2,000 fold
Enterococcus strains; compound alone, all strains of Table 1, in words
  activity in isolation against the Enterococcus strains tested: no activity
